Measured values: patent EP1824486B1, “BENZDIOXANE PIPERAZINE DERIVATIVES WITH A COMBINATION OF AFFINITY FOR DOPAMINE-D2 RECEPTORS AND SEROTONIN REUPTAKE SITES” (Solvay Pharmaceuticals B.V., priority 2004, dated 2006)

Key:
serotonin reuptake sites = target: T1, serotonin reuptake sites (Rattus norvegicus, UniProt P31652); experiment: In vitro affinity for serotonin reuptake sites ([3H]-paroxetine binding assay, Habert et al.); conditions: average values from three independent experiments; read-out: in vitro affinity 5-HT reuptake binding Ki
T1 construct: from tissue; host or cells: rat cortical membranes (from the title of the cited method only)
T1 sequence (P31652 whole entry): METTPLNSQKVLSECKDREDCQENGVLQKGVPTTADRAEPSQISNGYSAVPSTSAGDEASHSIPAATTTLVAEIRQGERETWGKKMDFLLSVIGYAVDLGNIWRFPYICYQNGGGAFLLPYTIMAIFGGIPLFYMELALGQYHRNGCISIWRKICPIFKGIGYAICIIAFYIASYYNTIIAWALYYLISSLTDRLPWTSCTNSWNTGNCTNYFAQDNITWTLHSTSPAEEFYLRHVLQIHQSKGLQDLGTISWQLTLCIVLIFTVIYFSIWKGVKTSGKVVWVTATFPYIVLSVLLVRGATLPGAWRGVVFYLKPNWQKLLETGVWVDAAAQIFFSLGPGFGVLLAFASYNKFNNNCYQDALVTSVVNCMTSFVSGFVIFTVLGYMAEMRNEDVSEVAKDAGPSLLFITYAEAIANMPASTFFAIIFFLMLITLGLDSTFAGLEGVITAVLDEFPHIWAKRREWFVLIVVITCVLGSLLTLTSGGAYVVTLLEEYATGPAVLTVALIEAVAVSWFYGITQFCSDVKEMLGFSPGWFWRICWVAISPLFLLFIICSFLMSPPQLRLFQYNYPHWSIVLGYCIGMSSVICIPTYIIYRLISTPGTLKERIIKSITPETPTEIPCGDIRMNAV
Excerpt: In vitro affinity for serotonin reuptake sites

serotonin reuptake = target: T2, serotonin reuptake (Mus musculus, UniProt Q60857); experiment: Potentiation of 5-HTP induced behaviour in mice; conditions: po, read-out: in vivo activity 5-HT reuptake 5-HTP** ED50 mg/kg po
T2 construct: they potentiate 5-HTP induced behaviour in mice; from tissue; host or cells: living mice (in vivo behavioural model)
T2 sequence (Q60857 whole entry): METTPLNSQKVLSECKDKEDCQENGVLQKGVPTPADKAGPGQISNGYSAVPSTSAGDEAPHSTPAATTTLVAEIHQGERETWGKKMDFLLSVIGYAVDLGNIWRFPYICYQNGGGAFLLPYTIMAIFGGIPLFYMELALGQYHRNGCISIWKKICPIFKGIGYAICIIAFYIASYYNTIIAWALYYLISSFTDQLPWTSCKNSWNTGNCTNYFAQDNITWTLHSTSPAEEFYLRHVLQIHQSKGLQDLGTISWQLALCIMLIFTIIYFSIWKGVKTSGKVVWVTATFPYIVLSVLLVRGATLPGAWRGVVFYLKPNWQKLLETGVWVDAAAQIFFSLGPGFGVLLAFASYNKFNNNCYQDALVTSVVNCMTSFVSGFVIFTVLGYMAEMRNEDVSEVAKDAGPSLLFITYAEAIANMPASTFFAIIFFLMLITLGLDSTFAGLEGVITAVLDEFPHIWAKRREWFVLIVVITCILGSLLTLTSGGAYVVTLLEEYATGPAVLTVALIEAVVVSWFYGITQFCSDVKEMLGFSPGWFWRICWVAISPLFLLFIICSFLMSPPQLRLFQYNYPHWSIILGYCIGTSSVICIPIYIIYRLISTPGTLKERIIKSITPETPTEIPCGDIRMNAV

dopamine D2 receptors = target: T3, dopamine D2 receptors (Mus musculus, UniProt P61168); experiment: Antagonism of apomorphine-induced climbing behaviour in mice (APO-climb); conditions: po, read-out: in vivo activity Dopamine-D2 APO-climb* ED50 mg/kg po
T3 construct: antagonize apomorphine-induced climbing behaviour in mice; from tissue; host or cells: living mice (in vivo behavioural model)
T3 sequence (P61168 whole entry): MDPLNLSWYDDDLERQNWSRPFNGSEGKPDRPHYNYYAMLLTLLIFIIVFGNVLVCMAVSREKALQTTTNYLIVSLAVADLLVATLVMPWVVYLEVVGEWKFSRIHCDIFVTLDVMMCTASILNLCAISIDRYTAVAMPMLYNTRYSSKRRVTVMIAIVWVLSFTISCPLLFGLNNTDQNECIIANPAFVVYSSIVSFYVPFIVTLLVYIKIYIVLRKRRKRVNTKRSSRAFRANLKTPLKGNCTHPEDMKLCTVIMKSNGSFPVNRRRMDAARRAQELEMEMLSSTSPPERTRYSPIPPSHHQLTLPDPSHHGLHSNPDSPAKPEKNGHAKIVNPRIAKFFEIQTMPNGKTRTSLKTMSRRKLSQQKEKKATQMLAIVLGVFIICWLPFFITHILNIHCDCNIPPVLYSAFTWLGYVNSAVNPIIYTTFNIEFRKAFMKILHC

| Ki (serotonin reuptake sites) | ED50 (serotonin reuptake) | ED50 (dopamine D2 receptors) | SMILES |
| --- | --- | --- | --- |
| 7.9 ± 2.8 nM |  |  | Clc1cccc2c(CCCN3CCN(c4cccc5c4OCCO5)CC3)c[nH]c12 [5l, 3-{3-[4-(2,3-Dihydro-benzo[1,4]dioxin-5-yl)-piperazin-1-yl]-propyl}-7-chloro-1H-indole] |
| 0.4 ± 0.1 nM | 22 mg/kg | 10 mg/kg | c1cc2c(c(N3CCN(CCCc4c[nH]c5ccccc45)CC3)c1)OCCO2 [compound 5b, 3-{3-[4-(2,3-Dihydro-benzo[1,4]dioxin-5-yl)-piperazin-1-yl]-propyl}-1H-indole] |
| 37 ± 3 nM |  |  | c1cc2c(c(N3CCN(CCCCCc4c[nH]c5ccccc45)CC3)c1)OCCO2 [compound 5c, 3-{5-[4-(2,3-Dihydro-benzo[1,4]dioxin-5-yl)-piperazin-1-yl]-pentyl}-1H-indole] |
| 0.4 ± 0.1 nM | 32 mg/kg | 13 mg/kg | Fc1cccc2[nH]cc(CCCN3CCN(c4cccc5c4OCCO5)CC3)c12 [compound 5d, 3-{3-[4-(2,3-Dihydro-benzo[1,4]dioxin-5-yl)-piperazin-1-yl]-propyl}-4-fluoro-1H-indole] |
| 1.6 ± 0.2 nM |  | 9 mg/kg | Fc1ccc2c(CCCN3CCN(c4cccc5c4OCCO5)CC3)c[nH]c2c1 [compound 5f, 3-{3-[4-(2,3-Dihydro-benzo[1,4]dioxin-5-yl)-piperazin-1-yl]-propyl}-6-fluoro-1H-indole] |
| 2 ± 0.7 nM | 86 mg/kg | 4.5 mg/kg | Clc1ccc2c(CCCN3CCN(c4cccc5c4OCCO5)CC3)c[nH]c2c1 [compound 5k, 3-{3-[4-(2,3-Dihydro-benzo[1,4]dioxin-5-yl)-piperazin-1-yl]-propyl}-6-chloro-1H-indole] |
| 12 ± 5 nM |  |  | Cc1cccc2c(CCCN3CCN(c4cccc5c4OCCO5)CC3)c[nH]c12 [compound 5n, 3-{3-[4-(2,3-Dihydro-benzo[1,4]dioxin-5-yl)-piperazin-1-yl]-propyl}-7-methyl-1H-indole] |
| 1.1 ± 0.3 nM |  |  | c1cc2c(c(N3CCN(CCCc4c[nH]c5ccccc45)CC3)c1)CCCO2 [compound 14, 3-[3-(4-chroman-5-yl-piperazine-1-yl)-propyl]-1H-indole] |

| SMILES | Ki (serotonin reuptake sites) | ED50 (serotonin reuptake) | ED50 (dopamine D2 receptors) |
| --- | --- | --- | --- |
| c1cc2c(c(N3CCN(Cc4c[nH]c5ccccc45)CC3)c1)OCCO2 [compound 5a, 3-[4-(2,3-Dihydro-benzo[1,4]dioxin-5-yl)-piperazin-1-yl-methyl]-1H-indole] | 176 ± 59 nM |  |  |
| Fc1ccc2[nH]cc(CCCN3CCN(c4cccc5c4OCCO5)CC3)c2c1 [compound 5e, 3-{3-[4-(2,3-Dihydro-benzo[1,4]dioxin-5-yl)-piperazin-1-yl]-propyl}-5-fluoro-1H-indole] | 0.3 ± 0.1 nM | 2 mg/kg |  |
| Fc1cccc2c(CCCN3CCN(c4cccc5c4OCCO5)CC3)c[nH]c12 [compound 5g, 3-{3-[4-(2,3-Dihydro-benzo[1,4]dioxin-5-yl)-piperazin-1yl]-propyl}-7-fluoro-1H-indole] | 0.6 ± 0.1 nM | 28.4 mg/kg |  |
| COc1ccc2[nH]cc(CCCN3CCN(c4cccc5c4OCCO5)CC3)c2c1 [compound 5h, 3-{3-[4-(2,3-Dihydro-benzo[1,4]dioxin-5-yl)-piperazin-1-yl]-propyl}-5-methoxy-1H-indole] | 14 ± 4 nM |  |  |
| Clc1cccc2[nH]cc(CCCN3CCN(c4cccc5c4OCCO5)CC3)c12 [compound 5i, 3-{3-[4-(2,3-Dihydro-benzo[1,4]dioxin-5-yl)-piperazin-1-yl]-propyl}-4-chloro-1H-indole] | 1.4 ± 0.4 nM |  |  |
